Source: patent US9073880B2, “2-(2-phenylethenyl) 1,3-benzodiazepine derivatives useful for the treatment of cancer” (Yissum Research Development Company of the Hebrew …, priority 2010, dated 2015)

How the values were obtained:
Assay type in all cases: cell-based
[1] = system: Human ovary cancer A2780 cells; test: Cell proliferation, A2780 (Example 4); conditions: compound in 2-hydroxypropyl-β-cyclodextrin
Procedure: (§1) Human ovary cancer A2780 cells lines were seeded at a density of 5000 cells/well, human melanoma A375 cells were plated at a density of 2,500 cells/well, human colon carcinoma HCT15 cells were plated at a density of 3,000 cells/well, human prostate carcinoma PC3 cells were plated at a density of 1,500 cells/well, human breast carcinoma MCF7 cells were plated at a density of 5,000 cells/well, human breast carcinoma MDA MB 468 cells were plated at a density of 6,000 cells/well, human myeloma U266, RPMI8226 and CAG cells were plated at a density of 10,000 cells/well. All cells were plated in 96-well plates in 90 μl growth medium containing 10% FCS, 100 units/ml penicillin and 100 μg/ml streptomycin. Compound 3 was added a day later in […] of 1% DMSO in DDW to obtain final concentrations of 0, 0.1, 0.3, 1, 3, and 10 μM. The final concentration of DMSO (0.1% DMSO) was kept constant in all samples. Following exposure of the cells to compound 3 for 72 hours at 37° C., adhered cells were fixed in 0.5% gluteraldehyde in medium for 10 min, washed three times with DDW, once with 0.1M sodium borate buffer pH 8.5 and stained with 1% methylene blue dissolved in 0.1M borate buffer solution for 60 min. Excess dye was washed out and cell-bound dye was eluted with 200 μl/well of 0.1M HCl. The optical density values were read at 630 nm in ELISA plate reader. Non-adhered cells were exposed to WST-1 reagent for 5 hours following 72 hours treatment with the inhibitors, and optical density values were read at 630 nm in ELISA plate reader. The data was analyzed in Microsoft Excel, using the vehicle control as 100% proliferation. The assays were performed in triplicates. The values of IC50 were derived from the dose-dependent growth curves obtained.
(§2) Cell proliferation assay was performed as described in Example 2. […]

[2] = system: human breast cancer MDA-MB-468 cells; test: Cell proliferation, MDA-MB-468 (Example 4); conditions: MDA-MB-468, breast cancer, compound in 2-hydroxypropyl-β-cyclodextrin
Procedure: as §1, §2

[3] = system: human hepatocarcinoma HepG2 cells; test: Cell proliferation, HepG2 (Example 4); conditions: compound in 2-hydroxypropyl-β-cyclodextrin
Procedure: as §1, §2

[4] = system: human multiple myeloma MM1S cells; test: Cell proliferation, MM1S (Example 4); conditions: MM1.S, compound in 2-hydroxypropyl-β-cyclodextrin
Procedure: as §1
(§3) Cell proliferation assay was performed as described in Example 2. The following cell line were plated in 96-well plates in 90 μl growth medium containing 10% FCS, 100 units/ml penicillin and 100 μg/ml streptomycin: human ovary cancer A2780 cells (4500 cells/well), human melanoma A375 (1500 cells/well) and YUMAC (2500 cells/well) cells, human colon carcinoma HCT15 (3000 cells/well) and HCT116 (2000 cells/well) cells, human prostate carcinoma PC3 (3000 cells/well), PC3MM2 (3500 cells/well) and DU145 (300 cells/well) cells, human hepatocarcinoma HepG2 (3000 cells/well), human Ewing sarcoma SK-ES-1 (4,500 cells/well), human glioblastoma U138MG (2,000 cells/well), human breast cancer T47D (4000 cells/well) and MDA-MB-468 (6000 cells/well) cells, human small cell lung carcinoma NCI-H1975 (5000 cells/well) cells, human osteosarcoma Saos-2 (5000 cells/well) cells, human pancreatic cancer ASPC (2500 cells/well) cells, human bladder carcinoma T24P (1000 cells/well) cells, human gastric cancer NCI-N87 (5000 cells/well) cells, human lymphoma KARPAS (5,000 cells/well) cells, human leukemia K562 (5,000 cells/well) cells and human multiple myeloma MM1S (10,000 cells/well), U266 (10,000 cells/well) and CAG (5,000 cells/well). Compounds 2-5 and 7-8 were added a day later in 10 μl of 0.7% 2-hydroxypropyl-β-cyclodextrin to obtain final concentrations of 0, 0.1, 0.3, 1, 3 and 10 μM.
Compounds 2-5 and 7-8 of the present invention were tested for their inhibitory potential in cell proliferation assay. Human ovary cancer A2780 cells, human melanoma A375 and YUMAC cells, human colon carcinoma HCT15 and HCT116 cells, human prostate carcinoma PC3, PC3MM2 and DU145 cells, human hepatocarcinoma HepG2 cells, human Ewing sarcoma SK-ES-1 cells, human glioblastoma U138MG cells, human breast cancer T47D and MDA-MB-468 cells, human small cell lung carcinoma NCI-H1975 cells, human osteosarcoma Saos-2 cells, human pancreatic cancer ASPC cells, human bladder cancer T24P cells, human gastric cancer cells, human lymphoma KARPAS cells, human leukemia K562 cells, and human multiple myeloma MM1S, CAG and U266 cells, were exposed to increasing concentrations of compounds 2-5 and 7-8. […]

[5] = system: human Ewing sarcoma SK-ES-1 cells; test: Cell proliferation, SK-ES-1 (Example 4); conditions: SK-ES1, SK-ES-1, Ewing sarcoma, compound in 2-hydroxypropyl-β-cyclodextrin
Procedure: as §1, §2

[6] = system: human melanoma YUMAC cells; test: Cell proliferation, YUMAC (Example 4); conditions: compound in 2-hydroxypropyl-β-cyclodextrin
Procedure: as §1, §3
(§4) Compounds 2-5 and 7-8 of the present invention were tested for their inhibitory potential in cell proliferation assay. […]

human NCI-H1975 cells = test: Cell proliferation, NCI-H1975 (Example 4); conditions: NCI-H1975, SCLC, compound in 2-hydroxypropyl-β-cyclodextrin
Procedure: as §1, §2

[7] = system: human gastric cancer NCI-N87 cells; test: Cell proliferation, NCI-N87 (Example 4); conditions: compound in 2-hydroxypropyl-β-cyclodextrin
Procedure: as §1, §2

[8] = system: human multiple myeloma CAG cells; test: Cell proliferation, CAG (Example 4); conditions: compound in 2-hydroxypropyl-β-cyclodextrin
Procedure: as §1, §2

[9] = system: human lymphoma KARPAS cells; test: Cell proliferation, KARPAS (Example 4); conditions: compound in 2-hydroxypropyl-β-cyclodextrin
Procedure: as §1, §2

[10] = system: human breast cancer T47D cells; test: Cell proliferation, T47D (Example 4); conditions: compound in 2-hydroxypropyl-β-cyclodextrin
Procedure: as §1, §2

[11] = system: human osteosarcoma Saos-2 cells; test: Cell proliferation, Saos-2 (Example 4); conditions: Saos-2, osteosarcoma, compound in 2-hydroxypropyl-β-cyclodextrin
Procedure: as §1, §2

[12] = system: human prostate carcinoma PC3MM2 cells; test: Cell proliferation, PC3MM2 (Example 4); conditions: PC3MM2, prostate cancer, compound in 2-hydroxypropyl-β-cyclodextrin
Procedure: as §1, §2

[13] = system: human leukemia K562 cells; test: Cell proliferation, K562 (Example 4); conditions: compound in 2-hydroxypropyl-β-cyclodextrin
Procedure: as §1, §3, §4

[14] = system: human pancreatic cancer ASPC cells; test: Cell proliferation, ASPC (Example 4); conditions: compound in 2-hydroxypropyl-β-cyclodextrin
Procedure: as §1, §3, §4

[15] = system: human glioblastoma U138MG cells; test: Cell proliferation, U138MG (Example 4); conditions: U138-MG, compound in 2-hydroxypropyl-β-cyclodextrin
Procedure: as §1, §2

[16] = system: human prostate carcinoma DU145 cells; test: Cell proliferation, DU145 (Example 4); conditions: DU-145, DU145, prostate cancer, compound in 2-hydroxypropyl-β-cyclodextrin
Procedure: as §1, §2

[17] = system: human bladder carcinoma T24P cells; test: Cell proliferation, T24P (Example 4); conditions: compound in 2-hydroxypropyl-β-cyclodextrin
Procedure: as §1, §2

[18] = system: human colon carcinoma HCT116 cells; test: Cell proliferation, HCT116 (Example 4); conditions: HCT-116, HCT116, colon cancer, compound in 2-hydroxypropyl-β-cyclodextrin
Procedure: as §1, §3, §4

| IC50 [1] [nM] | IC50 [2] [nM] | IC50 [3] [nM] | IC50 [4] [nM] | IC50 [5] [nM] | IC50 [6] [nM] | IC50 (human NCI-H1975 cells) [nM] | IC50 [7] [nM] | IC50 [8] [nM] | IC50 [9] [nM] | IC50 [10] [nM] | IC50 [11] [nM] | IC50 [12] [nM] | IC50 [13] [nM] | IC50 [14] [nM] | IC50 [15] [nM] | IC50 [16] [nM] | IC50 [17] [nM] | IC50 [18] [nM] | SMILES |
| --- | --- | --- | --- | --- | --- | --- | --- | --- | --- | --- | --- | --- | --- | --- | --- | --- | --- | --- | --- |
| 600 | 1200 | 2800 | 2000 | – | – | – | – | – | – | – | – | – | – | – | – | – | – | – | N#C/C(=C\c1cc(O)c(O)c(I)c1)c1ncc2cc(O)c(=O)c(O)c-2s1 [Compound 2] |
| 300 | 2200 | 2700 | 700 | 200 | 500 | 1100 | 4800 | 3000 | 1500 | 700 | 2000 | 900 | 900 | 18500 | 300 | 2000 | 3200 | 700 | O=c1c(O)cc2cnc(/C=C/c3cc(O)c(O)c(I)c3)sc-2c1O [Compound 4] |
| – | – | – | 200 | 200 | 500 | 2600 | 8400 | 4900 | 1800 | – | 2700 | – | 1800 | 13300 | 800 | 2300 | 4500 | 1400 | O=c1c(O)cc2cnc(/C=C/c3cc(O)c(O)cc3Br)sc-2c1O [Compound 7] |
| – | – | – | 500 | – | 500 | – | – | – | – | – | – | – | 800 | 17700 | – | – | – | 800 | O=c1c(O)c2sc(/C=C/c3cc(O)c(O)c(Br)c3)ncc-2c(Br)c1O [Compound 8] |
